Measurements reported in publication PMC4894409 (Scientific Reports, 2015).
Where a name gives a salt, the structure may show the parent alone. Read-outs that look alike come from different tables or passages of the source.

Assays:
[1] = test system: dopamine, noradrenaline and serotonin levels; conditions: cited from earlier work
mice [2] = test: FS test after AMPT, PCPA, PRAZ or WAY pretreatment (mechanism of antidepressant-like effect of D1); format: in vivo, Male Swiss mice; conditions: AMPT 100, PCPA 100, PRAZ 1 or WAY 0.3 mg/kg i.p. + Vehicle versus SAL + Vehicle, p > 0.05
Experimental: Mice were pretreated (i.p) with saline solution or AMPT 100 mg/kg (catecholamine depletor) 4 h prior to the oral administration of vehicle 10 mL/kg or D1 5 mg/kg. […] In a separate experiment, pretreatment (i.p) of mice with saline solution or PCPA 100 mg/kg (serotonin depletor) for four consecutive days prior to oral administration of vehicle or D1 5 mg/kg was used to investigate effect of serotonin depletion on antidepressant-like activity of this OAD. […] In all the four experiments, oral administration of vehicle or D1 5 mg/kg was followed by FS test (60 min interval between p.o. treatment and behavioural testing).

5-HT1A receptor = molecular target: T1, 5-HT1A receptor (Mus musculus, UniProt Q64264); test: [35S]GTPγS binding to mice hippocampal membranes; format: biochemical; conditions: for Emax: read-out: Intrinsic activity (Emax ± SEM in %)
T1 construct: The hippocampi of mice were dissected and homogenized in 5 volumes of ice-cold buffer; from tissue; host or cells: mouse hippocampus membranes
T1 sequence (Q64264 1-421): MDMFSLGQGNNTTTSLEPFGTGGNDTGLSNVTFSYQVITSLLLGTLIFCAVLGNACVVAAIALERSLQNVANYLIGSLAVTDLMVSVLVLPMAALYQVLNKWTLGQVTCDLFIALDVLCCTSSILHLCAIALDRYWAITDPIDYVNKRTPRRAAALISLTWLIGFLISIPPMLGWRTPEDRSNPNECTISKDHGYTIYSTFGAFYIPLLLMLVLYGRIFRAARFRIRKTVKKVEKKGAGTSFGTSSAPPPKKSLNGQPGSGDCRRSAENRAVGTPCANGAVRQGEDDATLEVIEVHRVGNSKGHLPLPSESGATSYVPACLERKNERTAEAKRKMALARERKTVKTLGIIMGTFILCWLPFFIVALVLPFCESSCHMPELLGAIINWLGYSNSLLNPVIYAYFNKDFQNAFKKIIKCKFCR
Experimental: The hippocampi of mice were dissected and homogenized in 5 volumes of ice-cold buffer (25 mM Tris-HCl, 0.5 mM dithiothreitol, and 0.5 mM EGTA, pH 7.4). The homogenate was centrifuged (1,000 × g for 5 min at 4 °C) and the resultant supernatant was removed. The remaining pellet was resuspended in buffer, homogenized, and centrifuged. The two supernatants obtained were combined and centrifuged at […] at 4 °C and the pellets were resuspended in membrane preparation buffer. The volumes were adjusted prior to the determination of protein concentration by Bradford method[56] and stored at −80 °C until required. […] The reactions were initiated by the addition of 25 μl [^35S]-GTPγS, followed by a 20 min incubation at 20 °C. The reactions were terminated by rapid filtration. The filters were placed in liquid scintillation cocktail in counting vials. The liquid scintillation spectroscopy was used to measure the radioactivity bound to the filter paper after 10 hour.

mice [3] = test: Forced swimming (FS) test; format: in vivo, Male Swiss mice
Experimental: (§1) Male Swiss mice (weighing between 25–30 g; 6–8 weeks old), provided by Central Animal House of the Federal University of Goiás, were used in all behavioural models. The experimental animals were kept in an intra-laboratory facility cage (32 × 18 × 16 cm) under controlled environmental conditions (23 ± 1 °C, 12 hr light-dark cycle) with access to food and water ad libitum. The experimental protocols (number 104/08) were approved by Ethical Committee of Federal University of Goiás in accordance to the international laws on the care and use of laboratory animals.
In the FS model, mice were randomly divided into 5 groups [control (vehicle), 3 different doses of OAD and IMI]. Mice were exposed to a modified version of FS test[48] after oral administration of vehicle, OAD (5, 10 or 20 mg/kg) or IMI 15 mg/kg. FS apparatus is a cylindrical water container (42 cm in height, 18 cm in diameter) filled with water up to 30 cm (total volume ( [drawing 1] of 7635.06 cm^3 at 24 ± 2 °C). In this model, the initial escape-directed behaviour like swimming and climbing by mouse are generally followed with a relatively passive and immobile posture. The container was cleaned with 10% ethanol solution prior to the exposure of naïve mouse. This test session (6-min duration) was videotaped and the swimming and immobility time was later scored and analyzed.

mice [4] = test: Open field (OF) test; format: in vivo, Male Swiss mice; conditions: for other parameters of the OF test: 5, 10, 20 mg/kg p.o., parameters not named as changed, p > 0.05
Experimental: as §1
In the OF, animals were randomly divided into six groups [control (vehicle), 3 different doses of OAD, DZP 1 or 5 mg/kg]. Animals were treated with vehicle, OAD (5, 10 or 20 mg/kg, p.o), DZP (1 or 5 mg/kg, p.o) as described in our previous work[7][49], and placed in a circular open field [base area ( [drawing 2] ) = 62.80 cm^2 which is divided into 8 equal sectors enclosed in a 50 cm high wooden wall]. The test session (5-min duration) was videotaped in a sound-proof experimental room. Parameters like total crossing, freezing time, number of grooming and rearing activity, crossing at the centre and time spent at the centre of the open field were observed and scored.

[5] = previous study; cited from earlier work
[6] = 100 mg/kg i.p. for four consecutive days
[7] = 20 mg/kg p.o., vs vehicle, p < 0.05

For `N[C@@H](Cc1ccc(Cl)cc1)C(=O)O` (racemic) [PCPA, p-chlorophenylalanine], the “depletion of endogenous serotonin content” value [1, 6] is given as “about 60%”, the “noradrenaline or dopamine levels” value [1, 6] is given as “without altering” and the “animal behaviour (swimming time) after pretreatment prior to vehicle” value (“animal behaviour (swimming time)” below) (mice [2]) is given as “did not alter animal behaviour”.

Molecule `CCCN(CCC)C1CCc2cccc(O)c2C1` (single isomer, unassigned; (+)) [(+) 8-OH-DPAT, 8-OH-DPAT] has an EC50 (5-HT1A receptor) of 158 nM and an Emax (5-HT1A receptor) of 94 ± 2%.

For `CC(N)(Cc1ccc(O)cc1)C(=O)O` (stereo not drawn) [AMPT, α-methyl-p-tyrosine], the levels of serotonin ([1]; mice) is given as “without affecting”, the “reduction of noradrenaline levels” value ([1]; mice) is given as 53% and the “reduction of dopamine levels” value ([1]; mice, tyrosine hydroxylase inhibitor) is given as 57%. The “animal behaviour (swimming time)” value (mice [2]) was “did not alter animal behaviour”.

`O=C1CC2(CCCC2)CC(=O)N1CCCCN1CCN(c2ncccn2)CC1` [Buspirone, buspirone] gave an EC50 (5-HT1A receptor; mice hippocampal membranes, read-out: Agonist potency (pEC50 ± SEM) (converted)) of 251 nM and an Emax (5-HT1A receptor; percentage of that produced by 10 μM (+)8-OH-DPAT) of 33 ± 1%.

For `C=C(C)C(=O)O[C@H]1CC[C@]2(C)[C@H]3CC=C4[C@@H]5CC(C)(C)CC[C@]5(C(=O)O)CC[C@@]4(C)[C@]3(C)CC[C@H]2C1(C)C` [D2, Oleanolic acid methacrylate], the “immobility time in the FS test” value (mice [3]; [7]) was “reduction”, the “swimming time in the FS test” value (mice [3]; [7]) was “significant increase” and the “total crossing in the OF” value (mice [4]; 20 mg/kg p.o., vs vehicle) was “increase”. For the same molecule, the “other parameters of the OF test” value (mice [4]) was “not altered”, the “time spent at the centre of the OF” value (mice [4]; 5, 10 and 20 mg/kg p.o., vs vehicle) was “increase” and the “crossing at the centre of the OF” value (mice [4]; 10 and 20 mg/kg p.o., vs vehicle) was “increase”.

In the case of `COC(=O)/C=C/C(=O)O[C@H]1CC[C@]2(C)[C@H]3CC=C4[C@@H]5CC(C)(C)CC[C@]5(C(=O)O)CC[C@@]4(C)[C@]3(C)CC[C@H]2C1(C)C` [D3, Oleanolic acid methyl fumarate], the “immobility time in the FS test” value (mice [3]; 5, 10, 20 mg/kg p.o., ANOVA) is reported as “did not elicit significant effect”, the “swimming time in the FS test” value (mice [3]; 5, 10, 20 mg/kg p.o., ANOVA) is reported as “did not elicit significant effect” and the “number of grooming in the OF” value (mice [4]; 10 mg/kg p.o., vs vehicle) is reported as “reduction”. The “freezing time in the OF” value (mice [4]; 20 mg/kg p.o., vs vehicle) was “increase”, the “time spent at the centre of the OF” value (mice [4]; 20 mg/kg p.o., vs vehicle) was “increase” and the “other parameters of the OF test” value (mice [4]) was “not altered”.

For `CN1C(=O)CN=C(c2ccccc2)c2cc(Cl)ccc21` [DZP, Diazepam, reference compound], the “effect in the OF test” value (mice [4]; 1 mg/kg p.o.) was “anxiolytic” and the “effect in the OF test” value (mice [4]; 5 mg/kg p.o.) was “sedative like effect”.

For `CN(C)CCCN1c2ccccc2CCc2ccccc21` [IMI, imipramine, reference compound], the “effect in FS test” value (mice [3]; 15 mg/kg p.o.) was “antidepressant-like effect”.

For `CC1(C)CC[C@]2(C(=O)O)CC[C@]3(C)C(=CC[C@@H]4[C@@]5(C)CC[C@H](O)C(C)(C)[C@@H]5CC[C@]43C)[C@@H]2C1` [OA, Oleanolic acid], the “dependence of antidepressant-like effect on MAO activity” value [5] is given as “independent of MAO activity” and the “effect of PCPA, AMPT, NAN, PRAZ and WAY100635 on antidepressant-like effect” value [5] is given as “blockade”.

With `COc1cc2nc(N3CCN(C(=O)c4ccco4)CC3)nc(N)c2cc1OC` [PRAZ, prazosin, reference compound] the “animal behaviour (swimming time)” value (mice [2]) was “did not alter animal behaviour”.

For `COc1ccccc1N1CCN(CCN(C(=O)C2CCCCC2)c2ccccn2)CC1` [WAY, N-{2-[4-(2-methoxyphenyl)-1-piperazinyl]ethyl}-N-2-pyridinylcyclohexane carboxamide, reference compound], the “animal behaviour (swimming time)” value (mice [2]) was “did not alter animal behaviour”.

In the case of Oleanolic acid ethyl fumarate [D4], the “swimming time in the FS test” value (mice [3]; [7]) is reported as “significant reduction”, the “immobility time in the FS test” value (mice [3]; 5, 10, 20 mg/kg p.o., ANOVA) is reported as “without changes” and the “freezing time in the OF” value (mice [4]; 20 mg/kg p.o., vs vehicle) is reported as “increase”. For the same molecule, the “total crossing in the OF” value (mice [4]; 20 mg/kg p.o., vs vehicle) was “reduction”.
